Reference: patent publication US5571833A, “Tryptamine analogues, their synthesis and their use as 5-HT1 -like or 5-HT2 receptor agonists” (SmithKline Beecham plc, priority 1991, dated 1996)
Structures can show the parent of a compound that is named as a salt.

Assays:
[1] = target: T1, 5-HT1-like receptor (dog saphenous vein) (Canis lupus familiaris, UniProt P79250); test: 5-HT1-Like Receptor Screen, Dog Saphenous Vein (contraction of helicoids); format: cell-based
T1 construct: Helicoids of dog saphenous vein were set up; from tissue; host or cells: dog saphenous vein (helicoids)
T1 sequence (P79250 whole entry): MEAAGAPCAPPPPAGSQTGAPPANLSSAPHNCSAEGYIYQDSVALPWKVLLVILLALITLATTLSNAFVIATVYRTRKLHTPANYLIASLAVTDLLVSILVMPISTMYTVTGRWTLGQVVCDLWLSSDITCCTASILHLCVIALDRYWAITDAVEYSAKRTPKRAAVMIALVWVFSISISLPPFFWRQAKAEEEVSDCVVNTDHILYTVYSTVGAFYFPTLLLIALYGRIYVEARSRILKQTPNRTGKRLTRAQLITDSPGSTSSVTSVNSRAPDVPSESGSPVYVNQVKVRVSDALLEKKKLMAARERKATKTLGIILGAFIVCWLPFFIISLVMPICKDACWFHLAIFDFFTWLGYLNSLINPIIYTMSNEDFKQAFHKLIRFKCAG
Experimental: 5-HT1 -Like Receptor Screen
Helicoids of dog saphenous vein were set up at 37° C. in modified Krebs solution at a resting force of 10 mN. The solution also contained 1 μmol/l each of ketanserin, prazosin, atropine and mepyramine, 6 μmol/l cocaine and 200 μmol/l ascorbate. Nearly […] contractions were measured with force transducers on a polygraph. The tissues were exposed twice to 5-hydroxytryptamine (5-HT) 2 μmol/l followed by washes. A cumulative concentration-effect curve to the test compound was determined, followed by a curve to 5-HT in the presence of the highest used concentration of test compound. Contractions caused by the test compound were compared with those caused by 5-HT. The intrinsic activity of the test compound was calculated as the ratio of the maximum test compound-induced effect over the effect caused by 2 μmol/l 5-HT. The EC50 of the test compound was estimated from the corresponding effect curve. When appropriate equilibrium dissociation constants Kp were estimated by the method of Marano & Kaumann (1976, J. Pharmacol. Exp. Ther. 198, 518-525).

[2] = target: T2, rabbit basilar artery (5-HT1-like receptor) (Oryctolagus cuniculus, UniProt P49144); test: Rabbit Basilar Artery (isometric tension of isolated ring segments); format: cell-based
T2 construct: from tissue; host or cells: rabbit basilar artery, endothelium removed (ring segments)
T2 sequence (P49144 whole entry): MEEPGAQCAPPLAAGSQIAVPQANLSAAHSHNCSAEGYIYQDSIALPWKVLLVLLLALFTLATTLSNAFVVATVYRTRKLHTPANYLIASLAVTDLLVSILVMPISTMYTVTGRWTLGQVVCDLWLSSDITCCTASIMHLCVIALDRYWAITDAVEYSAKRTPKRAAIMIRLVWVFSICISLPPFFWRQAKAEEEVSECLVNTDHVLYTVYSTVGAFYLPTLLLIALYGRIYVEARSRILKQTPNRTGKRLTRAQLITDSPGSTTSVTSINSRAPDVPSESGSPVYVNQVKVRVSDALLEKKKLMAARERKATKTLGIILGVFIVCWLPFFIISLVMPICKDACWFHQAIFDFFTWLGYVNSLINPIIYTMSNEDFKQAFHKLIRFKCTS
Experimental: Experiments were performed in intracranial arteries from rabbit isolated basilar artery in a similar method to one described previously (Parsons and Whalley, 1989. Eur J Pharmacol 174, 189-196.).
In brief, rabbits were killed by overdose with anaesthetic (sodium pentobarbitone). The whole brain was quickly removed and immersed in ice cold modified Kreb's solution and the basilar artery removed with the aid of a dissecting microscope. The Krebs solution was of the following composition (mM) Na^+ (120); K^+ (5); Ca^2+ (2.25); Mg^2+ (0.5); Cl^- (98.5); SO4^2^- (1); EDTA (0.04), equilibrated with 95% O2 /5% CO2. The endothelium was removed by a gentle rubbing of the lumen with a fine metal wire. Arteries were then cut into ring segments (ca 4-5 mm wide) and set up for recording of isometric tension in 50 ml tissue baths in modified Krebs solution with the additional supplement of (mM); […] (20); fumarate (10); pyruvate (5); L-glutamate (5) and glucose (10). The arteries were then placed under a resting force of 3-4 mN maintained at 37° C. and the solution bubbled with 95% O2 /5% CO2.
After tests for initial reactivity with 90 mM KCl depolarising solution and for lack of acetylcholine-induced relaxation of 5-HT ([…]) precontraction, cumulative concentration-effect curves ([…]) to 5-HT were constructed in the presence of ascorbate […], cocaine […], indomethacin […], ketanserin […] and prazosin […].
Following a 45-60 min wash period, cumulative concentration-effect curves to the test compounds or 5-HT (as a time match control) were constructed in the presence of ascorbate, indomethacin, cocaine, ketanserin and prazosin.

## CC(C)Oc1ccc2[nH]cc(CCN)c2c1Cl [Example 15, 3-(2-Aminoethyl)-4-chloro-5-iso-propoxyindole fumarate]
[1]
  EC50: 0.2 to 15 µM

## CCCCOc1ccc2[nH]cc(CCN(C)C)c2c1Cl [Example 11, 3-(2-Dimethylaminoethyl)-4-chloro-5-n-butyloxyindole hemifumarate]
[2]
  EC50: 0.17 to 1.1 µM
[1]
  EC50: 0.2 to 15 µM

## CCCOc1ccc2[nH]cc(CCN(C)C)c2c1Br [Example 14, 3-(2-Dimethylaminoethyl)-4-bromo-5-n-propoxyindole hemifumarate]
[2]
  EC50: 0.17 to 1.1 µM
[1]
  EC50: 0.2 to 15 µM

## CCCOc1ccc2[nH]cc(CCN)c2c1Br [Example 16, 3-(2-Aminoethyl)-4-bromo-5-n-propoxyindole oxalate]
[1]
  EC50: 0.2 to 15 µM

## CCCOc1ccc2[nH]cc(CCN(C)C)c2c1I [Example 20, 3-(2-(Dimethylamino)ethyl)-4-iodo-5-n-propyloxy indole oxalate]
[2]
  EC50: 0.17 to 1.1 µM

## COc1ccc2[nH]cc(CCN)c2c1Cl [Example 6(ii), 3-(2-aminoethyl)-4-chloro-5-methoxyindole fumarate]
[1]
  EC50: 0.2 to 15 µM

## CN(C)CCc1c[nH]c2ccc(OCC(C)(C)C)c(Cl)c12 [Example 22, 3-(2-(Dimethylamino)ethyl)-4-chloro-5-neopentyloxy indole oxalate]
[2]
  EC50: 0.17 to 1.1 µM

## CCCOc1ccc2[nH]cc(CCNC)c2c1Cl [Example 13, 3-(2-Methylaminoethyl)-4-chloro-5-n-propoxyindole hemifumarate]
[1]
  EC50: 0.2 to 15 µM

## CCCOc1ccc2[nH]cc(CCN)c2c1C [Example 18b, 3-(2-aminoethyl)-4-methyl-5-n-propyloxyindole oxalate]
[2]
  EC50: 0.17 to 1.1 µM

## CC(C)Oc1ccc2[nH]cc(CCN(C)C)c2c1Cl [Example 17, 3-(2-Dimethylaminoethyl)-4-chloro-5-isopropoxyindole oxalate]
[1]
  EC50: 0.2 to 15 µM

## CCCOc1ccc2[nH]cc(CCN(C)CC)c2c1Cl [Example 19, 3-(2-(N-methyl-N-ethylamino)ethyl)-4-chloro-5-n-propyloxyindole oxalate]
[2]
  EC50: 0.17 to 1.1 µM

## CN(C)CCc1c[nH]c2ccc(OCc3ccccc3)c(Cl)c12 [Example 4, 3-(2-Dimethylaminoethyl)-4-chloro-5-benzyloxyindole hydrochloride]
[2]
  EC50: 0.17 to 1.1 µM

## COc1ccc2[nH]cc(CCN(C)C)c2c1Br [Example 7, 3-(2-Dimethylaminoethyl)-4-bromo-5-methoxyindole hemifumarate]
[1]
  EC50: 0.2 to 15 µM

## CCCOc1ccc2[nH]cc(CCN)c2c1Cl [Example 3(ii), 3-(2-aminoethyl)-4-chloro-5-n-propyloxyindole fumarate]
[1]
  EC50: 0.2 to 15 µM

## CNCCc1c[nH]c2ccc(OC)c(Cl)c12 [Example 9, 3-(2-Methylaminoethyl)-4-chloro-5-methoxyindole hemifumarate]
[1]
  EC50: 0.2 to 15 µM

## NCCc1c[nH]c2ccc(OCc3ccccc3)c(Cl)c12 [Example 1, 3-(2-amino-ethyl)-4-chloro-5-benzyloxyindole hydrochloride]
[1]
  EC50: 0.2 to 15 µM

## NCCc1c[nH]c2ccc(O)c(Cl)c12 [Example 2, 3-(2-Aminoethyl)-4-chloro-5-hydroxyindole fumarate]
[2]
  EC50: 0.17 to 1.1 µM
[1]
  EC50: 0.2 to 15 µM

## COc1ccc2[nH]cc(CCN(C)C)c2c1Cl [6(i), 3-(2-Dimethylaminoethyl)-4-chloro-5-methoxyindole fumarate]
[2]
  EC50: 0.17 to 1.1 µM
[1]
  EC50: 0.2 to 15 µM

## CCCOc1ccc2[nH]cc(CCN(C)C)c2c1Cl [3(i), 3-(2-Dimethylaminoethyl)-4-chloro-5-n-propyloxy-indole fumarate]
[2]
  EC50: 0.17 to 1.1 µM
[1]
  EC50: 0.2 to 15 µM

## CN(C)CCc1c[nH]c2ccc(O)c(Cl)c12 [Example 5, 3-(2-Dimethylaminoethyl)-4-chloro-5-hydroxyindole oxalate]
[2]
  EC50: 0.17 to 1.1 µM
[1]
  EC50: 0.2 to 15 µM

## CCCNCCc1c[nH]c2ccc(OC)c(Cl)c12 [Example 8, 3-(2-n-Propylaminoethyl)-4-chloro-5-methoxyindole fumarate]
[1]
  EC50: 0.2 to 15 µM
